Source: ChEMBL document CHEMBL1201862, “PubChem BioAssay data set” (2004)
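The compound was tested at five concentrations on cells cultured in 96-well plates, with a 48-hour exposure period. Here, GI50 denotes the concentration required for 50% inhibition of growth.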 Calls of active or inactive are those of the source. No stated cut-off is given here; in the data, active = GI50 up to about 1.1 µM and inactive = higher.

Columns and labels:
Assay in all cases: NCI tumour cell line growth inhibition, 48 h
786-0 = test system: 786-0
A498 = test system: A498
A549 = test system: A549
ACHN = test system: ACHN
BT-549 = test system: BT-549
CAKI-1 = test system: CAKI-1
CCRF-CEM = test system: CCRF-CEM
COLO 205 = test system: COLO 205
DU-145 = test system: DU-145
EKVX = test system: EKVX
HCC 2998 = test system: HCC 2998
HCT-116 = test system: HCT-116
HCT-15 = test system: HCT-15
HL-60 = test system: HL-60
HOP-62 = test system: HOP-62
HOP-92 = test system: HOP-92
HT-29 = test system: HT-29
Hs-578T = test system: Hs-578T
IGROV-1 = test system: IGROV-1
K562 = test system: K562
KM12 = test system: KM12
LOX IMVI = test system: LOX IMVI
M14 = test system: M14
MCF7 = test system: MCF7
MDA-MB-231 = test system: MDA-MB-231
MDA-MB-435 = test system: MDA-MB-435
MDA-N = test system: MDA-N
MOLT-4 = test system: MOLT-4
Malme-3M = test system: Malme-3M
NCI-H23 = test system: NCI-H23
NCI-H460 = test system: NCI-H460
NCI-H522 = test system: NCI-H522
NCI/ADR-RES = test system: NCI/ADR-RES
OVCAR-3 = test system: OVCAR-3
OVCAR-4 = test system: OVCAR-4
OVCAR-5 = test system: OVCAR-5
OVCAR-8 = test system: OVCAR-8
PC-3 = test system: PC-3
RPMI-8226 = test system: RPMI-8226
RXF 393 = test system: RXF 393
SF-268 = test system: SF-268
SF-539 = test system: SF-539
SK-MEL-28 = test system: SK-MEL-28
SK-MEL-2 = test system: SK-MEL-2
SK-MEL-5 = test system: SK-MEL-5
SK-OV-3 = test system: SK-OV-3
SN12C = test system: SN12C
SNB-19 = test system: SNB-19
SNB-75 = test system: SNB-75
SW-620 = test system: SW-620
T47D = test system: T47D
TK-10 = test system: TK-10
U-251 = test system: U-251
UACC-257 = test system: UACC-257
UACC-62 = test system: UACC-62
UO-31 = test system: UO-31

Structure (SMILES): O=C(O)c1ccccc1C(=O)Nc1cc2c(cc1Br)-c1ccccc1C2=O
- GI50 (786-0): > 100 µM (inactive)
- GI50 (A498): > 100 µM (inactive)
- GI50 (A549): > 100 µM (inactive)
- GI50 (ACHN): > 100 µM (inactive)
- GI50 (BT-549): > 100 µM (inactive)
- GI50 (CAKI-1): > 100 µM (inactive)
- GI50 (CCRF-CEM): 45.9 µM (inactive)
- GI50 (COLO 205): 68.5 µM (inactive)
- GI50 (DU-145): 64.4 µM (inactive)
- GI50 (EKVX): > 100 µM (inactive)
- GI50 (HCC 2998): 23.2 µM (inactive)
- GI50 (HCT-116): > 100 µM (inactive)
- GI50 (HCT-15): > 100 µM
- GI50 (HL-60): 92.5 µM (inactive)
- GI50 (HOP-62): > 100 µM (inactive)
- GI50 (HOP-92): 48.1 µM (inactive)
- GI50 (HT-29): > 100 µM (inactive)
- GI50 (Hs-578T): 91.2 µM (inactive)
- GI50 (IGROV-1): > 100 µM (inactive)
- GI50 (K562): > 100 µM (inactive)
- GI50 (KM12): > 100 µM (inactive)
- GI50 (LOX IMVI): 81.1 µM (inactive)
- GI50 (M14): > 100 µM (inactive)
- GI50 (MCF7): > 100 µM (inactive)
- GI50 (MDA-MB-231): > 100 µM (inactive)
- GI50 (MDA-MB-435): > 100 µM (inactive)
- GI50 (MDA-N): > 100 µM (inactive)
- GI50 (MOLT-4): 79.8 µM (inactive)
- GI50 (Malme-3M): > 100 µM (inactive)
- GI50 (NCI-H23): > 100 µM (inactive)
- GI50 (NCI-H460): > 100 µM (inactive)
- GI50 (NCI-H522): 59.7 µM (inactive)
- GI50 (NCI/ADR-RES): > 100 µM (inactive)
- GI50 (OVCAR-3): 40.6 µM (inactive)
- GI50 (OVCAR-4): > 100 µM (inactive)
- GI50 (OVCAR-5): > 100 µM (inactive)
- GI50 (OVCAR-8): > 100 µM (inactive)
- GI50 (PC-3): > 100 µM (inactive)
- GI50 (RPMI-8226): > 100 µM (inactive)
- GI50 (RXF 393): 48 µM (inactive)
- GI50 (SF-268): > 100 µM (inactive)
- GI50 (SF-539): > 100 µM (inactive)
- GI50 (SK-MEL-28): 6.61 µM (inactive)
- GI50 (SK-MEL-2): > 100 µM (inactive)
- GI50 (SK-MEL-5): > 100 µM (inactive)
- GI50 (SK-OV-3): > 100 µM (inactive)
- GI50 (SN12C): > 100 µM (inactive)
- GI50 (SNB-19): > 100 µM (inactive)
- GI50 (SNB-75): 47.5 µM (inactive)
- GI50 (SW-620): > 100 µM (inactive)
- GI50 (T47D): > 100 µM (inactive)
- GI50 (TK-10): > 100 µM (inactive)
- GI50 (U-251): 87.5 µM (inactive)
- GI50 (UACC-257): > 100 µM (inactive)
- GI50 (UACC-62): > 100 µM (inactive)
- GI50 (UO-31): > 100 µM (inactive)
